Results as given in US5646000A, “Compounds and methods for identifying activated platelets” (Merck & Co., Inc., priority 1994, dated 1997).
Read-outs that look alike come from different tables or passages of the source.

What was measured:
[1] = molecular target: inactive form of GP IIb/IIIa (unactivated GP IIb/IIIa) (Homo sapiens, UniProt P05106+P08514); assay: Fluorescence displacement of probe 2-8 from inactive (unactivated) form of GP IIb/IIIa; assay type: binding
ADP-stimulated platelets = assay: Fibrinogen Receptor Antagonist Assay: ADP-stimulated platelet aggregation (gel-filtered human platelets); assay type: cell-based; conditions: gel-filtered human platelets 2×10^8 per ml, fibrinogen 100 μg/ml, Ca^2+ 1 mM, 10 μM ADP, 37° C.
Method: The fibrinogen receptor antagonist activity is based on evaluation of inhibition of ADP-stimulated platelets. Aggregation requires that fibrinogen bind to and occupy the fibrinogen receptor site. Inhibitors of fibrinogen binding inhibit aggregation.
Platelet aggregation was measured at 37° C. in a Chronolog aggregometer. The reaction mixture contained gel-filtered human platelets (2×10^8 per ml), fibrinogen (100 μg/ml), Ca^2+ (1 mM), and the compound to be tested. The aggregation was initiated by adding 10 μM ADP after the other components had been added. The reaction was allowed to proceed for at least 2 minutes.

[2] = molecular target: active form of GP IIb/IIIa (Homo sapiens, UniProt P05106+P08514); assay: Fluorescence displacement of probe 2-8 from active form of purified GP IIb/IIIa; assay type: binding
Method: The purified glycoprotein IIb/IIIa (final concentration 0.64 μM, active form which binds to RGDS affinity column) was mixed with fluorescent antagonist 2-8 (final concentration 1 μM) in a fluorescence cell and fluorescence recorded (excitation wavelength 340 nm, emission range 360-600 nm).

[3] = unactivated GP IIb/IIIa (Table 1), read-out: Ki (nM) (unactivated GP IIb/IIIa)

Chain of inactive form of GP IIb/IIIa (unactivated GP IIb/IIIa) (P08514 32-887 limits assumed): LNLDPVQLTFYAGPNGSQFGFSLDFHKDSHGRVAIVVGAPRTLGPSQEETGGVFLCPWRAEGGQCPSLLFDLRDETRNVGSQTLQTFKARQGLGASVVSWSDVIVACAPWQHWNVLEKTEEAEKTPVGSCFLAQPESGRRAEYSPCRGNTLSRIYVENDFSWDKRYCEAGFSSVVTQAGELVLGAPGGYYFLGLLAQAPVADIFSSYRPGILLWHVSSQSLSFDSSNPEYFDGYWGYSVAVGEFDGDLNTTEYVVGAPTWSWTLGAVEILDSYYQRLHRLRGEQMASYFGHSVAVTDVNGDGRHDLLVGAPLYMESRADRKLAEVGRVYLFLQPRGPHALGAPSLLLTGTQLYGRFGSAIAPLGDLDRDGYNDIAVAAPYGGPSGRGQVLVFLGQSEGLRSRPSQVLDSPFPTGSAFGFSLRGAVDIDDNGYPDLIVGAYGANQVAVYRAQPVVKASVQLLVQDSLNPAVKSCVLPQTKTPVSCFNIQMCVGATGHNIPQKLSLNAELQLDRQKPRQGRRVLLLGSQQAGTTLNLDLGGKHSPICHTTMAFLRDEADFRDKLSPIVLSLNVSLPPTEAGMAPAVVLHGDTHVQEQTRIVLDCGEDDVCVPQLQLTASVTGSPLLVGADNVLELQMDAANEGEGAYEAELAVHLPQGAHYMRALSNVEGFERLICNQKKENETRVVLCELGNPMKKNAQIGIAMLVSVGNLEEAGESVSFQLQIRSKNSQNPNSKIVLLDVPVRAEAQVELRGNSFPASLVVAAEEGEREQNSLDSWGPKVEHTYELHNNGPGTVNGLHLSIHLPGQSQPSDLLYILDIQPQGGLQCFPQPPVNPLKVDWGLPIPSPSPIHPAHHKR
Chain of inactive form of GP IIb/IIIa (unactivated GP IIb/IIIa) (P08514 891-1039 partner limits assumed): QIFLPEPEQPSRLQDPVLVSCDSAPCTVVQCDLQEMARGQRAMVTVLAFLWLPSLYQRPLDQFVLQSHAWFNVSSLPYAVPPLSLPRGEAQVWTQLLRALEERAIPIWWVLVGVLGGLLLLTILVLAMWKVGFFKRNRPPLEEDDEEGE
Chain of inactive form of GP IIb/IIIa (unactivated GP IIb/IIIa) (P05106 27-788): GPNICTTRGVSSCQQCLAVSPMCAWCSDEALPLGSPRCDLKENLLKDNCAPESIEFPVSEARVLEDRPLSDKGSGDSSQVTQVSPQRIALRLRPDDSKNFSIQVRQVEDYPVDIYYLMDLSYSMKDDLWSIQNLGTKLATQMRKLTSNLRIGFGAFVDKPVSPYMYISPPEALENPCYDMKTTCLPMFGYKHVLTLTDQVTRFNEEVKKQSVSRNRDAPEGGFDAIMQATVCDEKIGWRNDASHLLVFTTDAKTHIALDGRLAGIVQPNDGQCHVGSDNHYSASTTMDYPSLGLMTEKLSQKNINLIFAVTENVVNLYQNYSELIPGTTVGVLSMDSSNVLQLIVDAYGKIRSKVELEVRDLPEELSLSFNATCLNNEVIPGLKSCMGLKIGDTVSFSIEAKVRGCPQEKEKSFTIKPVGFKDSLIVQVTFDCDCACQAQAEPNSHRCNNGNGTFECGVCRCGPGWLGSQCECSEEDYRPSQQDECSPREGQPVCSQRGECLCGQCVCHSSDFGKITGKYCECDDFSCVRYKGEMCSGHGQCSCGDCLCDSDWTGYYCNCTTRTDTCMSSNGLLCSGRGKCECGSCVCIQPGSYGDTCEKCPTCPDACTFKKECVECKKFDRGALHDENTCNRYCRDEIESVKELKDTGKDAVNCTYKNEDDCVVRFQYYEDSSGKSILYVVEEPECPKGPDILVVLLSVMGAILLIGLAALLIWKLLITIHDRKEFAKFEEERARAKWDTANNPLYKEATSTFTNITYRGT
Chain of active form of GP IIb/IIIa (P08514 32-887 limits assumed): as the sequence (P08514 32-887 limits assumed) above
Chain of active form of GP IIb/IIIa (P08514 891-1039 partner limits assumed): as the sequence (P08514 891-1039 partner limits assumed) above
Chain of active form of GP IIb/IIIa (P05106 27-788): as the sequence (P05106 27-788) above

## O=C(O)CCNC(=O)c1ccc2c(c1)C(=O)N(CCC1CCNCC1)C2 [Compound A, 2,3-Dihydro-N-(2-carboxyethyl)-2-[2-(4-piperidinyl)ethyl]-3-oxo-1-H-isoindole-5-carboxamide]
[1]; [3]
  Ki: 99 nM
ADP-stimulated platelets
  IC50: 27 nM

## O=C(O)C[C@@H](CCc1c[nH]c2ccccc12)NC(=O)CNC(=O)CCCC1CCNCC1 [Compound B, Pib-Gly-3(R)-[2(indol-3-yl)ethyl]β-alanine hydrogen chloride]
[1]; inactive form, does not bind to RGDS affinity column, displacement of 2-8, read-out: Ki on inactive form of GP IIb/IIIa
  Ki: 470 nM
[2]; GP IIb/IIIa 0.64 μM, probe 2-8 1 μM, excitation 340 nm, change in fluorescence at 550 nm, read-out: Ki for nonfluorescent antagonist toward the active form of GP IIb/IIIa
  Ki: 4 nM
ADP-stimulated platelets
  IC50: 94 nM

## CCCCS(=O)(=O)N[C@@H](CNC(=O)c1ccc2c(c1)C(=O)N(CCC1CCNCC1)C2)C(=O)O [Compound D, 1-H-isoindole-5-carboxamide, 2,3 dihydro-N-[3-(2(S)-n-butylsulfonylamino)propionic acid]-2-[2-(4-piperidinyl)ethyl]-3-oxo]
[1]; [3]
  Ki: 2.4 nM
ADP-stimulated platelets
  IC50: 21 nM

## CN(C)c1cccc2c(S(=O)(=O)N[C@@H](CNC(=O)c3ccc4c(c3)C(=O)N(CCC3CCNCC3)C4)C(=O)O)cccc12 [Compound 2-8, 1H-Isoindole-5-carboxamide, 2,3-dihydro-N-[2(S)-dansylamino-3-aminopropionic acid]-2-[2-(4-piperidinyl)ethyl]-3-oxo]
[2]; active form of GP IIb/IIIa, binds to RGDS affinity column, read-out: Ki of fluorescence antagonist 2-8 (used for the calculation)
  Ki: 3.7 nM

## O=C(NC[C@H](NS(=O)(=O)c1cccnc1)C(=O)O)c1cc2cc(CCC3CCNCC3)sc2s1 [Compound E, 5-[2-(Piperidin-4-yl)ethyl]thieno[2,3-b]thiophene-2-N-[3-2(S)-(3-pyridylsulfonylamino)propionic acid] carboxamide]
[1]; [3]
  Ki: ≤ 2.7 nM
ADP-stimulated platelets
  IC50: 8 nM
